Measurements published in patent publication US11077090B2, “Compounds and compositions and uses thereof” (Sunovion Pharmaceuticals Inc., priority 2016, dated 2021).

What follows are compounds tested on compound-treated mice (assay: Neuropharmacological assay (SmartCube): behavioral activity signature and minimal effective dose). Settings: MED = dose having 50% or more total activity.
Format: in vivo
Text: Neurosci. 2011 Sep. 9; 5:103 (doi: 10.3389/fnins.2011.00103) (“Roberds”). As reported in Roberds, because psychiatric diseases generally result from disorders of cell-cell communication or circuitry, intact systems are useful in detecting improvement in disease-relevant endpoints. These endpoints are typically behavioral in nature, often requiring human observation and interpretation. To facilitate testing of multiple compounds for behavioral effects relevant to psychiatric disease, PsychoGenics, Inc. (Tarrytown, N.Y., “PGI”) developed SmartCube™, an automated system in which behaviors of compound-treated mice are captured by digital video and analyzed with computer algorithms. (D. Brunner et al., Drug Discov. Today 2002, 7:S107-S112). PGI Analytical Systems uses data from SmartCube™ to compare the behavioral signature of a test compound to a database of behavioral signatures obtained using a large set of diverse reference compounds. (The composition of the database as well as validation of the method is further described in Roberds). In this way, the neuropharmacological effects of a test compound can be predicted by similarity to major classes of compounds, such as antipsychotics, anxiolytics and antidepressants.
The SmartCube™ system produces an activity signature indicating the probability that the activity of the test compound at the administered dose matches a given class of neuropharmacological agents. (See, e.g., Roberds, FIGS. 2 and 3). The test compound is simultaneously compared against multiple classes of agents; thus, a separate probability is generated for each behavioral effect measured (e.g., anxiolytic activity, analgesic activity, etc.). In the table below, these probabilities are reported for each behavioral effect measured as follows:
where LOQ is the limit of quantification.
Provided compounds were dissolved in a mixture of Pharmasolve™ (N-methyl-2-pyrrolidone), polyethylene glycol and propylene glycol, and were injected i.p. 15 min. before the behavioral test. For each compound, injections were administered at 3 different doses. For each behavioral effect measured, results for the most efficacious dose(s) are presented. In the table below, DP: anti-depressant; AX: anxiolytic; SD: sedative hypnotic; PS: anti-psychotic; MS: mood stabilizer; AD: ADHD; CE: cognitive enhancer; AG: analgesic; UN: uncharacterized CNS activity.
The potency of many of the compounds in the table was also determined in the SmartCube™ system. Test compounds were routinely examined at dose levels of 0.3, 1, 3, 10 and 30 mg per kg (mpk), although the dose range was increased or decreased if necessary to obtain a full dose response curve. A compound's minimal effective dose (MED) is a measure of the compounds potency. The MED was defined as the dose (in mpk) having 50% or more total activity in SmartCube.
`Cl.NC1COCc2ccc3c(c21)C1CCC3C1` (single isomer, unassigned) [Example 161] was tested, and the “Potency: minimal effective dose (MED), binned” value (“Potency: minimal effective dose” below) was “B (>3 to 10 mpk)”.
`Cl.NC1COCc2ccc3c(c21)C1CCC3C1` (single isomer, unassigned) [Example 162] was tested, and the “Potency: minimal effective dose” value was “B (>3 to 10 mpk)”.
In the case of `Cl.NC1COCc2ccc3c(c21)C1CCC3C1` (single isomer, unassigned) [Example 163], the “Potency: minimal effective dose” value is reported as “B (>3 to 10 mpk)”.
In the case of `Cl.NC1COCc2ccc3c(c21)C1CCC3C1` (single isomer, unassigned) [Example 164], the “Potency: minimal effective dose” value is reported as “B (>3 to 10 mpk)”.

Same assay, conditions: Mus musculus, ip, MED = dose having 50% or more total activity, read-out: Potency: minimal effective dose (MED)
`CN[C@@H]1COCc2cccc(C)c21` (single isomer, unassigned) [Example 137] was tested, and the minimal effective dose was 3 to 10 mg/kg.
`CN[C@H]1COCc2cccc(C)c21` (single isomer, unassigned) [Example 138] showed a minimal effective dose of 3 to 10 mg/kg.
In the case of `CN[C@H]1COCc2c(Cl)cccc21` (single isomer, unassigned) [Example 150], the minimal effective dose is reported as 3 to 10 mg/kg.
In the case of `C[C@H]1OCc2ccccc2[C@@H]1N` (single isomer, unassigned) [Example 151], the minimal effective dose is reported as 3 to 10 mg/kg.
With `C[C@@H]1OCc2ccccc2[C@@H]1N` (single isomer, unassigned) [Example 153] the minimal effective dose was 3 to 10 mg/kg.
`C[C@H]1OCc2ccccc2[C@H]1N` (single isomer, unassigned) [Example 154] showed a minimal effective dose of 3 to 10 mg/kg.

Same assay, conditions: Mus musculus, ip, MED = dose having 50% or more total activity, read-out: Potency: minimal effective dose (MED), binned
`Cc1ccc2c(c1)[C@@H](N)[C@@H](C)OC2` (single isomer, unassigned) [Example 158] showed a minimal effective dose of 3 to 10 mg/kg.
`Cc1ccc(C)c2c1COC[C@H]2N` (single isomer, unassigned) [Example 165] gave a minimal effective dose of 3 to 10 mg/kg.

Same assay, conditions: i.p. 15 min before test, most efficacious dose(s)
For `CN[C@@H]1COCc2cccc(C)c21` (single isomer, unassigned) [Example 137], the “AD: ADHD (probability of activity signature)” value (“AD: ADHD” below) was “+ (LOQ ≤ + <5%)”, the “AG: analgesic (probability of activity signature)” value (shortened to “AG: analgesic”) was “++ (5% ≤ ++ <25%)” and the “AX: anxiolytic (probability of activity signature)” value (from here on “AX: anxiolytic”) was “++ (5% ≤ ++ <25%)”. For the same compound, the “CE: cognitive enhancer (probability of activity signature)” value (from here on “CE: cognitive enhancer”) was “++ (5% ≤ ++ <25%)”, the “DP: anti-depressant (probability of activity signature)” value (from here on “DP: anti-depressant”) was “+ (LOQ ≤ + <5%)” and the “MS: mood stabilizer (probability of activity signature)” value (shortened to “MS: mood stabilizer”) was “+ (LOQ ≤ + <5%)”. The “PS: anti-psychotic (probability of activity signature)” value (“PS: anti-psychotic” below) was “++ (5% ≤ ++ <25%)”, the “SD: sedative hypnotic (probability of activity signature)” value (“SD: sedative hypnotic” for short) was “+ (LOQ ≤ + <5%)” and the “UN: uncharacterized CNS activity (probability of activity signature)” value (“UN: uncharacterized CNS activity” for short) was “+++ (25% ≤ +++ <50%)”.
`CN[C@H]1COCc2cccc(C)c21` (single isomer, unassigned) [Example 138] was tested, and the “AD: ADHD” value was “+ (LOQ ≤ + <5%)”, the “AG: analgesic” value was “++ (5% ≤ ++ <25%)” and the “AX: anxiolytic” value was “++ (5% ≤ ++ <25%)”. For the same compound, the “CE: cognitive enhancer” value was “++ (5% ≤ ++ <25%)”, the “DP: anti-depressant” value was “++ (5% ≤ ++ <25%)” and the “MS: mood stabilizer” value was “+ (LOQ ≤ + <5%)”. The “PS: anti-psychotic” value was “++ (5% ≤ ++ <25%)”, the “SD: sedative hypnotic” value was “++ (5% ≤ ++ <25%)” and the “UN: uncharacterized CNS activity” value was “+++ (25% ≤ +++ <50%)”.
For `CN[C@H]1COCc2c(Cl)cccc21` (single isomer, unassigned) [Example 150], the “AD: ADHD” value was “+ (LOQ ≤ + <5%)”, the “AG: analgesic” value was “++ (5% ≤ ++ <25%)” and the “AX: anxiolytic” value was “++ (5% ≤ ++ <25%)”. For the same compound, the “CE: cognitive enhancer” value was “+ (LOQ ≤ + <5%)”, the “DP: anti-depressant” value was “+ (LOQ ≤ + <5%)” and the “MS: mood stabilizer” value was “+ (LOQ ≤ + <5%)”. For the same compound, the “PS: anti-psychotic” value was “++ (5% ≤ ++ <25%)”, the “SD: sedative hypnotic” value was “+ (LOQ ≤ + <5%)” and the “UN: uncharacterized CNS activity” value was “++++ (50% ≤ ++++)”.
For `C[C@H]1OCc2ccccc2[C@@H]1N` (single isomer, unassigned) [Example 151], the “AD: ADHD” value was “+ (LOQ ≤ + <5%)”, the “AG: analgesic” value was “++ (5% ≤ ++ <25%)” and the “AX: anxiolytic” value was “+++ (25% ≤ +++ <50%)”. For the same compound, the “CE: cognitive enhancer” value was “++ (5% ≤ ++ <25%)”, the “DP: anti-depressant” value was “++ (5% ≤ ++ <25%)” and the “MS: mood stabilizer” value was “+ (LOQ ≤ + <5%)”. For the same compound, the “PS: anti-psychotic” value was “++ (5% ≤ ++ <25%)”, the “SD: sedative hypnotic” value was “++ (5% ≤ ++ <25%)” and the “UN: uncharacterized CNS activity” value was “++ (5% ≤ ++ <25%)”.
With `C[C@@H]1OCc2ccccc2[C@@H]1N` (single isomer, unassigned) [Example 153] the “AD: ADHD” value was “+ (LOQ ≤ + <5%)”, the “AG: analgesic” value was “++ (5% ≤ ++ <25%)” and the “AX: anxiolytic” value was “++ (5% ≤ ++ <25%)”. For the same compound, the “CE: cognitive enhancer” value was “++ (5% ≤ ++ <25%)”, the “DP: anti-depressant” value was “+ (LOQ ≤ + <5%)” and the “MS: mood stabilizer” value was “+ (LOQ ≤ + <5%)”. The “PS: anti-psychotic” value was “++ (5% ≤ ++ <25%)”, the “SD: sedative hypnotic” value was “+ (LOQ ≤ + <5%)” and the “UN: uncharacterized CNS activity” value was “+++ (25% ≤ +++ <50%)”.
With `C[C@H]1OCc2ccccc2[C@H]1N` (single isomer, unassigned) [Example 154] the “AD: ADHD” value was “+ (LOQ ≤ + <5%)”, the “AG: analgesic” value was “++ (5% ≤ ++ <25%)” and the “AX: anxiolytic” value was “++ (5% ≤ ++ <25%)”. For the same compound, the “CE: cognitive enhancer” value was “++ (5% ≤ ++ <25%)”, the “DP: anti-depressant” value was “+ (LOQ ≤ + <5%)” and the “MS: mood stabilizer” value was “+ (LOQ ≤ + <5%)”. The “PS: anti-psychotic” value was “++ (5% ≤ ++ <25%)”, the “SD: sedative hypnotic” value was “++ (5% ≤ ++ <25%)” and the “UN: uncharacterized CNS activity” value was “++++ (50% ≤ ++++)”.
For `Cc1ccc2c(c1)[C@@H](N)[C@@H](C)OC2` (single isomer, unassigned) [Example 158], the “AD: ADHD” value was “+ (LOQ ≤ + <5%)”, the “AG: analgesic” value was “++ (5% ≤ ++ <25%)” and the “AX: anxiolytic” value was “++ (5% ≤ ++ <25%)”. The “CE: cognitive enhancer” value was “++ (5% ≤ ++ <25%)”, the “DP: anti-depressant” value was “++ (5% ≤ ++ <25%)” and the “MS: mood stabilizer” value was “+ (LOQ ≤ + <5%)”. For the same compound, the “PS: anti-psychotic” value was “+++ (25% ≤ +++ <50%)”, the “SD: sedative hypnotic” value was “++ (5% ≤ ++ <25%)” and the “UN: uncharacterized CNS activity” value was “++ (5% ≤ ++ <25%)”.
With `Cl.NC1COCc2ccc3c(c21)C1CCC3C1` (single isomer, unassigned) [Example 161] the “AD: ADHD” value was “+ (LOQ ≤ + <5%)”, the “AG: analgesic” value was “++ (5% ≤ ++ <25%)” and the “AX: anxiolytic” value was “+++ (25% ≤ +++ <50%)”. For the same compound, the “CE: cognitive enhancer” value was “++ (5% ≤ ++ <25%)”, the “DP: anti-depressant” value was “++ (5% ≤ ++ <25%)” and the “MS: mood stabilizer” value was “+ (LOQ ≤ + <5%)”. The “PS: anti-psychotic” value was “++ (5% ≤ ++ <25%)”, the “SD: sedative hypnotic” value was “+ (LOQ ≤ + <5%)” and the “UN: uncharacterized CNS activity” value was “++ (5% ≤ ++ <25%)”.
In the case of `Cl.NC1COCc2ccc3c(c21)C1CCC3C1` (single isomer, unassigned) [Example 162], the “AD: ADHD” value is reported as “+ (LOQ ≤ + <5%)”, the “AG: analgesic” value is reported as “++ (5% ≤ ++ <25%)” and the “AX: anxiolytic” value is reported as “+++ (25% ≤ +++ <50%)”. For the same compound, the “CE: cognitive enhancer” value was “++ (5% ≤ ++ <25%)”, the “DP: anti-depressant” value was “+ (LOQ ≤ + <5%)” and the “MS: mood stabilizer” value was “+ (LOQ ≤ + <5%)”. For the same compound, the “PS: anti-psychotic” value was “++ (5% ≤ ++ <25%)”, the “SD: sedative hypnotic” value was “+ (LOQ ≤ + <5%)” and the “UN: uncharacterized CNS activity” value was “+++ (25% ≤ +++ <50%)”.
For `Cl.NC1COCc2ccc3c(c21)C1CCC3C1` (single isomer, unassigned) [Example 163], the “AD: ADHD” value was “+ (LOQ ≤ + <5%)”, the “AG: analgesic” value was “++ (5% ≤ ++ <25%)” and the “AX: anxiolytic” value was “++ (5% ≤ ++ <25%)”. For the same compound, the “CE: cognitive enhancer” value was “++ (5% ≤ ++ <25%)”, the “DP: anti-depressant” value was “++ (5% ≤ ++ <25%)” and the “MS: mood stabilizer” value was “+ (LOQ ≤ + <5%)”. For the same compound, the “PS: anti-psychotic” value was “+++ (25% ≤ +++ <50%)”, the “SD: sedative hypnotic” value was “++ (5% ≤ ++ <25%)” and the “UN: uncharacterized CNS activity” value was “+++ (25% ≤ +++ <50%)”.
For `Cl.NC1COCc2ccc3c(c21)C1CCC3C1` (single isomer, unassigned) [Example 164], the “AD: ADHD” value was “+ (LOQ ≤ + <5%)”, the “AG: analgesic” value was “++ (5% ≤ ++ <25%)” and the “AX: anxiolytic” value was “+++ (25% ≤ +++ <50%)”. The “CE: cognitive enhancer” value was “++ (5% ≤ ++ <25%)”, the “DP: anti-depressant” value was “+ (LOQ ≤ + <5%)” and the “MS: mood stabilizer” value was “+ (LOQ ≤ + <5%)”. For the same compound, the “PS: anti-psychotic” value was “++ (5% ≤ ++ <25%)”, the “SD: sedative hypnotic” value was “++ (5% ≤ ++ <25%)” and the “UN: uncharacterized CNS activity” value was “+++ (25% ≤ +++ <50%)”.
`Cc1ccc(C)c2c1COC[C@H]2N` (single isomer, unassigned) [Example 165] was tested, and the “AD: ADHD” value was “+ (LOQ ≤ + <5%)”, the “AG: analgesic” value was “+ (LOQ ≤ + <5%)” and the “AX: anxiolytic” value was “++ (5% ≤ ++ <25%)”. For the same compound, the “CE: cognitive enhancer” value was “++ (5% ≤ ++ <25%)”, the “DP: anti-depressant” value was “++ (5% ≤ ++ <25%)” and the “MS: mood stabilizer” value was “+ (LOQ ≤ + <5%)”. The “PS: anti-psychotic” value was “++ (5% ≤ ++ <25%)”, the “SD: sedative hypnotic” value was “+ (LOQ ≤ + <5%)” and the “UN: uncharacterized CNS activity” value was “++++ (50% ≤ ++++)”.
